{
  "source": "patent US9375497B2",
  "about": "“[F-18]-labeled L-glutamic acid, [F-18]-labeled L-glutamine, derivatives thereof and use thereof and processes for their preparation” (BAYER SCHERING PHARMA AKTIENGESELLSCHAFT, priority 2006, dated 2016)",
  "test_system": "murine F9 teratocarcinoma model in NMRI nude mice",
  "test": "Tumor enrichment and tissue distribution, F9 teratocarcinoma model",
  "settings": "for Tumor/tissue quotient, Blood / Tumor/tissue quotient, Brain / Tumor/tissue quotient, Fat / Tumor/tissue quotient, Heart / Tumor/tissue quotient, Intestine / Tumor/tissue quotient, Kidney / Tumor/tissue quotient, Liver / Tumor/tissue quotient, Lung / Tumor/tissue quotient, Muscle / Tumor/tissue quotient, Ovary / Tumor/tissue quotient, Skin / Tumor/tissue quotient, Spleen / Tumor/tissue quotient, Stomach / Tumor/tissue quotient, Uterus: single i.v.; for Tissue uptake, Blood / Tissue uptake, Brain / Tissue uptake, Fat / Tissue uptake, Heart / Tissue uptake, Intestine / Tissue uptake, Kidney / Tissue uptake, Liver / Tissue uptake, Lung / Tissue uptake, Muscle / Tissue uptake, Ovary / Tissue uptake, Skin / Tissue uptake, Spleen / Tissue uptake, Stomach / Tissue uptake, Tumor / Tissue uptake, Uterus: single i.v. 370 kBq",
  "procedure": "For the evaluation of the tumor enrichment and the tissue distribution in experimental animals, [^18F]-4-glutamic acid was tested in a murine F9 teratocarcinoma model in NMRI nude mice and a murine B16F1 melanoma model in C57BI6 mice.\nFor this, 1×10^6 cells (F9) or 5×10^5 cells (B16F1) respectively were suspended in 100 μl of phosphate-buffered physiological saline solution and inoculated subcutaneously into the right, rear flank of the corresponding experimental animal species (NMRI for F9 and 057-BI6 for B16F1) (Berndorff et al. Clin. Cancer Res. 2005, 11, 2005). […] [^18F]-4-Glutamic acid (370 kBq, in 100 μl of physiological saline solution) was administered intravenously to the tail vein. […]",
  "data": [
    {"smiles": "NC(CC([18F])C(=O)O)C(=O)O", "note": "(centres unmarked) [[^18F]4-glutamic acid, 4-[F-18]fluoroglutamic acid]", "values": [
      {"measurement": "Tumor/tissue quotient, Blood", "setting": "0.25 h (times as Table 1)", "result": 1.14},
      {"measurement": "Tumor/tissue quotient, Brain", "setting": "0.25 h (times as Table 1)", "result": 5.6},
      {"measurement": "Tumor/tissue quotient, Fat", "setting": "0.25 h (times as Table 1)", "result": 5.85},
      {"measurement": "Tumor/tissue quotient, Heart", "setting": "0.25 h (times as Table 1)", "result": 1.01},
      {"measurement": "Tumor/tissue quotient, Intestine", "setting": "0.25 h (times as Table 1)", "result": 1.26},
      {"measurement": "Tumor/tissue quotient, Kidney", "setting": "0.25 h (times as Table 1)", "result": 0.4},
      {"measurement": "Tumor/tissue quotient, Liver", "setting": "0.25 h (times as Table 1)", "result": 0.86},
      {"measurement": "Tumor/tissue quotient, Lung", "setting": "0.25 h (times as Table 1)", "result": 0.57},
      {"measurement": "Tumor/tissue quotient, Muscle", "setting": "0.25 h (times as Table 1)", "result": 1.67},
      {"measurement": "Tumor/tissue quotient, Ovary", "setting": "0.25 h (times as Table 1)", "result": 2.43},
      {"measurement": "Tumor/tissue quotient, Skin", "setting": "0.25 h (times as Table 1)", "result": 1.25},
      {"measurement": "Tumor/tissue quotient, Spleen", "setting": "0.25 h (times as Table 1)", "result": 1.12},
      {"measurement": "Tumor/tissue quotient, Stomach", "setting": "0.25 h (times as Table 1)", "result": 1.12},
      {"measurement": "Tumor/tissue quotient, Uterus", "setting": "0.25 h (times as Table 1)", "result": 1.18},
      {"measurement": "Tissue uptake, Blood", "setting": "0.25 h", "result": 2.51, "unit": "% dose/g"},
      {"measurement": "Tissue uptake, Brain", "setting": "0.25 h", "result": 0.52, "unit": "% dose/g"},
      {"measurement": "Tissue uptake, Fat", "setting": "0.25 h", "result": 0.85, "unit": "% dose/g"},
      {"measurement": "Tissue uptake, Heart", "setting": "0.25 h", "result": 2.86, "unit": "% dose/g"},
      {"measurement": "Tissue uptake, Intestine", "setting": "0.25 h", "result": 2.28, "unit": "% dose/g"},
      {"measurement": "Tissue uptake, Kidney", "setting": "0.25 h", "result": 7.24, "unit": "% dose/g"},
      {"measurement": "Tissue uptake, Liver", "setting": "0.25 h", "result": 3.37, "unit": "% dose/g"},
      {"measurement": "Tissue uptake, Lung", "setting": "0.25 h", "result": 5.08, "unit": "% dose/g"},
      {"measurement": "Tissue uptake, Muscle", "setting": "0.25 h", "result": 1.72, "unit": "% dose/g"},
      {"measurement": "Tissue uptake, Ovary", "setting": "0.25 h", "result": 1.34, "unit": "% dose/g"},
      {"measurement": "Tissue uptake, Skin", "setting": "0.25 h", "result": 2.28, "unit": "% dose/g"},
      {"measurement": "Tissue uptake, Spleen", "setting": "0.25 h", "result": 2.56, "unit": "% dose/g"},
      {"measurement": "Tissue uptake, Stomach", "setting": "0.25 h", "result": 2.56, "unit": "% dose/g"},
      {"measurement": "Tissue uptake, Tumor", "setting": "0.25 h", "result": 2.90, "unit": "% dose/g"},
      {"measurement": "Tissue uptake, Uterus", "setting": "0.25 h", "result": 2.54, "unit": "% dose/g"},
      {"measurement": "Tumor/tissue quotient, Blood", "setting": "1.0 h (times as Table 1)", "result": 3.46},
      {"measurement": "Tumor/tissue quotient, Brain", "setting": "1.0 h (times as Table 1)", "result": 4.2},
      {"measurement": "Tumor/tissue quotient, Fat", "setting": "1.0 h (times as Table 1)", "result": 7.37},
      {"measurement": "Tumor/tissue quotient, Heart", "setting": "1.0 h (times as Table 1)", "result": 2.73},
      {"measurement": "Tumor/tissue quotient, Intestine", "setting": "1.0 h (times as Table 1)", "result": 0.97},
      {"measurement": "Tumor/tissue quotient, Kidney", "setting": "1.0 h (times as Table 1)", "result": 1.38},
      {"measurement": "Tumor/tissue quotient, Liver", "setting": "1.0 h (times as Table 1)", "result": 3.48},
      {"measurement": "Tumor/tissue quotient, Lung", "setting": "1.0 h (times as Table 1)", "result": 1.34},
      {"measurement": "Tumor/tissue quotient, Muscle", "setting": "1.0 h (times as Table 1)", "result": 2.51},
      {"measurement": "Tumor/tissue quotient, Ovary", "setting": "1.0 h (times as Table 1)", "result": 5.05},
      {"measurement": "Tumor/tissue quotient, Skin", "setting": "1.0 h (times as Table 1)", "result": 3.4},
      {"measurement": "Tumor/tissue quotient, Spleen", "setting": "1.0 h (times as Table 1)", "result": 3.22},
      {"measurement": "Tumor/tissue quotient, Stomach", "setting": "1.0 h (times as Table 1)", "result": 2.45},
      {"measurement": "Tumor/tissue quotient, Uterus", "setting": "1.0 h (times as Table 1)", "result": 2.59},
      {"measurement": "Tissue uptake, Blood", "setting": "1.0 h", "result": 0.51, "unit": "% dose/g"},
      {"measurement": "Tissue uptake, Brain", "setting": "1.0 h", "result": 0.43, "unit": "% dose/g"},
      {"measurement": "Tissue uptake, Fat", "setting": "1.0 h", "result": 0.26, "unit": "% dose/g"},
      {"measurement": "Tissue uptake, Heart", "setting": "1.0 h", "result": 0.64, "unit": "% dose/g"},
      {"measurement": "Tissue uptake, Intestine", "setting": "1.0 h", "result": 1.83, "unit": "% dose/g"},
      {"measurement": "Tissue uptake, Kidney", "setting": "1.0 h", "result": 1.30, "unit": "% dose/g"},
      {"measurement": "Tissue uptake, Liver", "setting": "1.0 h", "result": 0.50, "unit": "% dose/g"},
      {"measurement": "Tissue uptake, Lung", "setting": "1.0 h", "result": 1.32, "unit": "% dose/g"},
      {"measurement": "Tissue uptake, Muscle", "setting": "1.0 h", "result": 0.70, "unit": "% dose/g"},
      {"measurement": "Tissue uptake, Ovary", "setting": "1.0 h", "result": 0.41, "unit": "% dose/g"},
      {"measurement": "Tissue uptake, Skin", "setting": "1.0 h", "result": 0.53, "unit": "% dose/g"},
      {"measurement": "Tissue uptake, Spleen", "setting": "1.0 h", "result": 0.54, "unit": "% dose/g"},
      {"measurement": "Tissue uptake, Stomach", "setting": "1.0 h", "result": 1.26, "unit": "% dose/g"},
      {"measurement": "Tissue uptake, Tumor", "setting": "1.0 h", "result": 1.75, "unit": "% dose/g"},
      {"measurement": "Tissue uptake, Uterus", "setting": "1.0 h", "result": 0.72, "unit": "% dose/g"},
      {"measurement": "Tumor/tissue quotient, Blood", "setting": "2.0 h (times as Table 1)", "result": 9.06},
      {"measurement": "Tumor/tissue quotient, Brain", "setting": "2.0 h (times as Table 1)", "result": 7.06},
      {"measurement": "Tumor/tissue quotient, Fat", "setting": "2.0 h (times as Table 1)", "result": 23.67},
      {"measurement": "Tumor/tissue quotient, Heart", "setting": "2.0 h (times as Table 1)", "result": 9.22},
      {"measurement": "Tumor/tissue quotient, Intestine", "setting": "2.0 h (times as Table 1)", "result": 1.54},
      {"measurement": "Tumor/tissue quotient, Kidney", "setting": "2.0 h (times as Table 1)", "result": 5.22},
      {"measurement": "Tumor/tissue quotient, Liver", "setting": "2.0 h (times as Table 1)", "result": 9.23},
      {"measurement": "Tumor/tissue quotient, Lung", "setting": "2.0 h (times as Table 1)", "result": 4.09},
      {"measurement": "Tumor/tissue quotient, Muscle", "setting": "2.0 h (times as Table 1)", "result": 9.5},
      {"measurement": "Tumor/tissue quotient, Ovary", "setting": "2.0 h (times as Table 1)", "result": 17.74},
      {"measurement": "Tumor/tissue quotient, Skin", "setting": "2.0 h (times as Table 1)", "result": 9.4},
      {"measurement": "Tumor/tissue quotient, Spleen", "setting": "2.0 h (times as Table 1)", "result": 18},
      {"measurement": "Tumor/tissue quotient, Stomach", "setting": "2.0 h (times as Table 1)", "result": 6.85},
      {"measurement": "Tumor/tissue quotient, Uterus", "setting": "2.0 h (times as Table 1)", "result": 6.96},
      {"measurement": "Tissue uptake, Blood", "setting": "2.0 h", "result": 0.21, "unit": "% dose/g"},
      {"measurement": "Tissue uptake, Brain", "setting": "2.0 h", "result": 0.27, "unit": "% dose/g"},
      {"measurement": "Tissue uptake, Fat", "setting": "2.0 h", "result": 0.09, "unit": "% dose/g"},
      {"measurement": "Tissue uptake, Heart", "setting": "2.0 h", "result": 0.21, "unit": "% dose/g"},
      {"measurement": "Tissue uptake, Intestine", "setting": "2.0 h", "result": 1.21, "unit": "% dose/g"},
      {"measurement": "Tissue uptake, Kidney", "setting": "2.0 h", "result": 0.37, "unit": "% dose/g"},
      {"measurement": "Tissue uptake, Liver", "setting": "2.0 h", "result": 0.20, "unit": "% dose/g"},
      {"measurement": "Tissue uptake, Lung", "setting": "2.0 h", "result": 0.48, "unit": "% dose/g"},
      {"measurement": "Tissue uptake, Muscle", "setting": "2.0 h", "result": 0.42, "unit": "% dose/g"},
      {"measurement": "Tissue uptake, Ovary", "setting": "2.0 h", "result": 0.12, "unit": "% dose/g"},
      {"measurement": "Tissue uptake, Skin", "setting": "2.0 h", "result": 0.21, "unit": "% dose/g"},
      {"measurement": "Tissue uptake, Spleen", "setting": "2.0 h", "result": 0.16, "unit": "% dose/g"},
      {"measurement": "Tissue uptake, Stomach", "setting": "2.0 h", "result": 0.33, "unit": "% dose/g"},
      {"measurement": "Tissue uptake, Tumor", "setting": "2.0 h", "result": 1.87, "unit": "% dose/g"},
      {"measurement": "Tissue uptake, Uterus", "setting": "2.0 h", "result": 0.32, "unit": "% dose/g"},
      {"measurement": "tumor enrichment", "setting": "F9 teratocarcinoma, 1 h after intravenous administration", "result": 1.75, "unit": "% ID/g"},
      {"measurement": "maximal tumor enrichment", "setting": "F9 teratocarcinoma, after intravenous injection (15 min)", "result": 2.90, "unit": "% ID/g"}
    ]}
  ]
}
